# According to patent US20210338613A1, “FORMULATIONS AND METHODS FOR TRANSDERMAL ADMINISTRATION OF KETONES” (DYVE BIOSCIENCES, INC., priority 2018, published 2021):
# What was measured:
# [1] = Distance run on a treadmill (Example 4); format: in vivo, Wistar rats; conditions: 5 days; topical = Formulation D 100 μL twice daily; ketone ester as 30% of calories
# Procedure: (§1) In vivo tests were performed as follows: Wistar rats were treated with either topically applied βHB or a ketone ester diet. The experiment lasted for 5 days. Trial design was built to assess these primary outcomes: the effects on distance run on a treadmill, and on time to complete an 8 arm radial maze. Treatment groups randomized as follows: a. Control Group: standard diet (calorically matched to all treatment groups) b. Treatment Group 1: ketone ester diet with chow that is supplemented with (R)-3-hydroxybutyl (R)-3-hydroxybutyrate as 30% of calories c. […] Formulations detailed below [table]
# [2] = Time to complete an 8 arm radial maze (Example 4); format: in vivo, Wistar rats; conditions: 5 days; topical = Formulation D 100 μL twice daily; ketone ester as 30% of calories
# Procedure: as §1
# [3] = tested on: tumors; assay: Survival of tumor-bearing mice treated with PI3K inhibitor BKM120 (Example 3); format: in vivo, C57/BL6 mice; conditions: Treatment Group 1: BKM120 37.5 mg/kg daily oral gavage with standard chow; not statistically different from Control (6.1 days)
# Procedure: In this experiment, β-hydroxybutyrate (βHB) in formulations of the disclosure was tested for its ability to enhance the efficacy of PI3K inhibitors and compared to a ketogenic diet.
# In vivo tests were performed as follows: C57/BL6 mice 8 weeks of age They were injected with […] cells in a 1:1 mix of growth media and matrigel. and tumors were allowed to grow to a minimum diameter of 0.6 cm before the initiation of treatment. All mice were treated daily with the P3K inhibitor BKM120 (37.5 mg/kg) by oral gavage and were given either a normal chow diet, a ketogenic diet, or a normal chow diet with there topically applied βHB. Trial design was built to assess this primary outcome: survival time. Treatment groups randomized as follows: […]
# b. Treatment Group 1: BKM120 treatment with standard rodent chow c. Treatment Group 2: BKM120 treatment with ketogenic rodent chow d. Treatment Group 3: BKM120 treatment with standard rodent chow with 100 μL of βHB formulation applied topically twice daily. Formulations detailed below
# [4] = Blood glucose levels in rats after ketone supplements (Example 5); format: in vivo, Sprague-Dawley rats; conditions: 10 g/kg intragastric gavage; 4-week study
# Procedure: In this experiment, β-hydroxybutyrate (βHB) in formulations of the disclosure was tested for its ability to impact blood ketone and glucose levels and compared to oral delivery of various exogenous ketone supplements.
# The experiment lasted for 28 days. Trial design was built to assess these primary outcomes: the effects on blood ketones and blood glucose. Blood samples were taken for analysis of glucose and βHB at baseline and, 0.5, 1, 4, 8, and 12 h post-treatment. Treatment groups randomized as follows:
# Treatment Group 1: daily 10 g/kg dose via intragastric gavage of 1,3-butanediol (BD)
# Treatment Group 2: daily 10 g/kg dose via intragastric gavage of sodium/potassium β-hydroxybutyrate (βHB) mineral salt (BMS)
# Treatment Group 3: daily 10 g/kg dose via intragastric gavage of medium chain triglyceride oil (MCT)
# Treatment Group 5: daily 10 g/kg dose via intragastric gavage of 1,3 butanediol acetoacetate diester (KE)
# g. Treatment Group 6: 100 μL of βHB formulation applied topically daily.
# [5] = tested on: firefly luciferase-tagged syngeneic VM-M3 cells; assay: Survival of VM mice with metastatic cancer (Example 2); format: in vivo; conditions: VM-M3 implanted VM mice
# Procedure: In this experiment, β-hydroxybutyrate (βHB) in formulations of the disclosure was tested for its ability to decrease tumor cell viability and prolong survival and compared to an orally delivered diet supplemented with either 1,3-butanediol (BD) or a ketone ester (KE), which are metabolized to the ketone bodies βHB and acetoacetate.
# In vivo tests were performed as follows: Adult male inbred VM mice were implanted subcutaneously with firefly luciferase-tagged syngeneic VM-M3 cells. The mice were then fed a standard diet with no topical treatment, a standard diet supplemented with either 1,3-butanediol (BD) or a ketone ester (KE), or a standard diet with topically applied βHB. Trial design was built to assess this primary outcome: survival time. Treatment groups randomized as follows: […]
# a. Control Group: standard diet rodent chow b. Treatment Group 1: standard diet rodent chow mixed with 20% 1,3-butanediol (BD) by volume and 1% saccharin for palatability c. Treatment Group 2: standard diet rodent chow mixed with 10% ketone esters (KE) by volume and 1% saccharin for palatability d. Treatment Group 3: standard diet rodent chow with 100 μL of βHB formulation applied topically twice daily. Formulations detailed below
structure (smiles),measurement,setting,value
"C[C@@H](O)CCOC(=O)C[C@@H](C)O [ketone ester diet, (R)-3-hydroxybutyl (R)-3-hydroxybutyrate]",mean increase in treadmill distance vs control,[1],32%
same,mean decrease in time to solve the maze vs control,[2],38%
Nc1cc(C(F)(F)F)c(-c2cc(N3CCOCC3)nc(N3CCOCC3)n2)cn1 [BKM120],mean survival time,[3],6.7 days
"CC(O)CCO (stereo not drawn) [oral BD, 1,3-butanediol]",effect on blood glucose,[4],did not significantly change blood glucose levels at any time point
same,mean increase in mean survival time versus Control Group,"[5]; BD 20% or KE 10% in chow, topical = Formulation B 100 μL twice daily",50.6%
same,mean survival time,"[5]; Control Group 31.2 days, topical = Formulation B",47.0 days
